Data published in article PMC7734625, “Stabilization Strategies for Linear Minigastrin Analogues: Further Improvements via the Inclusion of Proline into the Peptide Sequence” (Journal of Medicinal Chemistry, 2020).
Read-outs that look alike come from different tables or passages of the source. Non-standard residues stand in square brackets, D forms with d. Residues, ends and D or L forms follow the SMILES beside them. *: point of attachment. DOTA = O=C(O)CN1CCN(CC(=O)O)CCN(CC(=O)*)CCN(CC(=O)O)CC1; 1Nal = N[C@@H](Cc1cccc2ccccc12)C(=O)O; NMeNle = CCCC[C@H](NC)C(=O)O

Experiment: biodistribution in A431-CCK2R/A431-mock xenografted BALB/c nude mice
Format: in vivo
Details: female, athymic BALB/c nude, mouse, iv, total radioactivity; for tissue to tissue ratio at 4 h / tissue uptake at 4 h: 4 h p.i.; for tissue uptake at 12 h / tissue to tissue ratio at 12 h: 12 h p.i.
[1] = A431-CCK2R xenograft tumor, 20 pmol, 20 pmol, read-out: tumor uptake in A431-CCK2R xenografts
[2] = A431-mock xenograft tumor, 20 pmol, 20 pmol, read-out: uptake in A431-mock xenografts
[3] = blood, 20 pmol, 20 pmol, read-out: uptake in blood
[4] = heart, 20 pmol, 20 pmol, read-out: uptake in heart
[5] = intestine, 20 pmol, 20 pmol, read-out: uptake in intestine
[6] = kidney, 20 pmol, 20 pmol, read-out: uptake in kidney
[7] = liver, 20 pmol, 20 pmol, read-out: uptake in liver
[8] = lung, 20 pmol, 20 pmol, read-out: uptake in lung
[9] = muscle, 20 pmol, 20 pmol, read-out: uptake in muscle
[10] = pancreas, 20 pmol, 20 pmol, read-out: uptake in pancreas
[11] = spleen, 20 pmol, 20 pmol, read-out: uptake in spleen
[12] = stomach, 20 pmol, 20 pmol, read-out: uptake in stomach

Structure (SMILES): CCCC[C@@H](C(=O)N[C@@H](CC(=O)O)C(=O)N[C@@H](Cc1cccc2ccccc12)C(N)=O)N(C)C(=O)[C@H](Cc1c[nH]c2ccccc12)NC(=O)CNC(=O)[C@@H]1CCCN1C(=O)[C@H](Cc1ccc(O)cc1)NC(=O)[C@@H](CCC(=O)O)NC(=O)CN1CCN(CC(=O)O)CCN(CC(=O)O)CCN(CC(=O)O)CC1 [[^177Lu]Lu-2, metal not drawn] ({DOTA}-[dE]YPGW[NMeNle]D[1Nal]-NH2)
- tissue to tissue ratio at 4 h (A431-CCK2R xenograft tumor / blood, 20 pmol, 20 pmol, read-out: tumor-to-blood ratio): 429 ± 134
- tissue to tissue ratio at 4 h (A431-CCK2R xenograft tumor / kidney, 20 pmol, 20 pmol, read-out: tumor-to-kidney ratio): 6.51 ± 2.29
- tissue to tissue ratio at 4 h (A431-CCK2R xenograft tumor / liver, 20 pmol, 20 pmol, read-out: tumor-to-liver ratio): 80.6 ± 26.5
- tissue to tissue ratio at 4 h (A431-CCK2R xenograft tumor / stomach, 20 pmol, 20 pmol, read-out: tumor-to-stomach ratio): 7.31 ± 1.84
- tissue uptake at 4 h [1]: 33.2 ± 6.34 %ID/g
- tissue uptake at 12 h [1]: 25 ± 4.92 %ID/g
- tissue uptake at 4 h (A431-CCK2R xenograft tumor, 150 pmol, 150 pmol, read-out: tumor uptake in A431-CCK2R xenografts): 17.2 ± 5.98 %ID/g
- tissue uptake at 4 h [2]: 0.25 ± 0.06 %ID/g
- tissue uptake at 12 h [2]: 0.15 ± 0.03 %ID/g
- tissue uptake at 4 h (A431-mock xenograft tumor, 150 pmol, 150 pmol, read-out: uptake in A431-mock xenografts): 0.33 ± 0.05 %ID/g
- tissue uptake at 4 h [3]: 0.08 ± 0.01 %ID/g
- tissue uptake at 12 h [3]: 0.01 %ID/g
- tissue uptake at 4 h (blood, 150 pmol, 150 pmol, read-out: uptake in blood): 0.09 ± 0.01 %ID/g
- tissue uptake at 4 h [4]: 0.09 ± 0.01 %ID/g
- tissue uptake at 12 h [4]: 0.05 ± 0.01 %ID/g
- tissue uptake at 4 h (heart, 150 pmol, 150 pmol, read-out: uptake in heart): 0.15 ± 0.05 %ID/g
- tissue uptake at 4 h [5]: 0.56 ± 0.1 %ID/g
- tissue uptake at 12 h [5]: 0.19 ± 0.02 %ID/g
- tissue uptake at 4 h (intestine, 150 pmol, 150 pmol, read-out: uptake in intestine): 0.55 ± 0.08 %ID/g
- tissue uptake at 4 h [6]: 5.53 ± 1.51 %ID/g
- tissue uptake at 12 h [6]: 3.37 ± 0.17 %ID/g
- tissue uptake at 4 h (kidney, 150 pmol, 150 pmol, read-out: uptake in kidney): 7.88 ± 1.26 %ID/g
- tissue uptake at 4 h [7]: 0.43 ± 0.08 %ID/g
- tissue uptake at 12 h [7]: 0.27 ± 0.03 %ID/g
- tissue uptake at 4 h (liver, 150 pmol, 150 pmol, read-out: uptake in liver): 0.79 ± 0.19 %ID/g
- tissue uptake at 4 h [8]: 0.17 ± 0.01 %ID/g
- tissue uptake at 12 h [8]: 0.08 ± 0.01 %ID/g
- tissue uptake at 4 h (lung, 150 pmol, 150 pmol, read-out: uptake in lung): 0.25 ± 0.04 %ID/g
- tissue uptake at 4 h [9]: 0.06 ± 0.03 %ID/g
- tissue uptake at 12 h [9]: 0.02 %ID/g
- tissue uptake at 4 h (muscle, 150 pmol, 150 pmol, read-out: uptake in muscle): 0.1 ± 0.09 %ID/g
- tissue uptake at 4 h [10]: 1.21 ± 0.49 %ID/g
- tissue uptake at 12 h [10]: 0.82 ± 0.06 %ID/g
- tissue uptake at 4 h (pancreas, 150 pmol, 150 pmol, read-out: uptake in pancreas): 0.73 ± 0.55 %ID/g
- tissue uptake at 4 h [11]: 0.16 ± 0.01 %ID/g
- tissue uptake at 12 h [11]: 0.13 ± 0.01 %ID/g
- tissue uptake at 4 h (spleen, 150 pmol, 150 pmol, read-out: uptake in spleen): 0.28 ± 0.08 %ID/g
- tissue uptake at 4 h [12]: 4.68 ± 0.93 %ID/g
- tissue uptake at 12 h [12]: 4.12 ± 0.82 %ID/g
- tissue uptake at 4 h (stomach, 150 pmol, 150 pmol, read-out: uptake in stomach): 1.02 ± 0.45 %ID/g
- tissue to tissue ratio at 12 h (tumor/blood, 20 pmol, 20 pmol, read-out: tumor-to-blood ratio): 2000 ± 750
- tissue to tissue ratio at 4 h (tumor/blood, 150 pmol, 150 pmol, read-out: tumor-to-blood ratio): 188 ± 80
- tissue to tissue ratio at 12 h (tumor/kidney, 20 pmol, 20 pmol, read-out: tumor-to-kidney ratio): 7.41 ± 1.33
- tissue to tissue ratio at 4 h (tumor/kidney, 150 pmol, 150 pmol, read-out: tumor-to-kidney ratio): 2.23 ± 0.87
- tissue to tissue ratio at 12 h (tumor/liver, 20 pmol, 20 pmol, read-out: tumor-to-liver ratio): 131 ± 37
- tissue to tissue ratio at 4 h (tumor/liver, 150 pmol, 150 pmol, read-out: tumor-to-liver ratio): 22.8 ± 10
- tissue to tissue ratio at 12 h (tumor/stomach, 20 pmol, 20 pmol, read-out: tumor-to-stomach ratio): 6.15 ± 1.12
- tissue to tissue ratio at 4 h (tumor/stomach, 150 pmol, 150 pmol, read-out: tumor-to-stomach ratio): 12.7 ± 4.9
